A short description of data set [1]: Plasma stability, mouse. Format: in vitro ADME. The conditions noted are these: 1 μM, 37 °C. The protocol:
The reaction was started by the addition of the compound to blank plasma in LC vials after preincubation at 37 °C. The initial compound concentration was 1 μM. The reaction was stopped by the addition of ACN at seven time points (0, 0.5, 1, 2, 4, 6, and 23 h). Time point 0 h was about 15–20 s after spiking the plasma with the compound. The samples were centrifuged and the supernatant diluted and analyzed by LC–MS/MS to determine the % of compound remaining relative to the initial concentration of compound.

Data set [2] has as its target T1, PmSiaT (Proteus mirabilis, UniProt B4EZY7).
T1 construct: made in house
T1 sequence (B4EZY7 1-496): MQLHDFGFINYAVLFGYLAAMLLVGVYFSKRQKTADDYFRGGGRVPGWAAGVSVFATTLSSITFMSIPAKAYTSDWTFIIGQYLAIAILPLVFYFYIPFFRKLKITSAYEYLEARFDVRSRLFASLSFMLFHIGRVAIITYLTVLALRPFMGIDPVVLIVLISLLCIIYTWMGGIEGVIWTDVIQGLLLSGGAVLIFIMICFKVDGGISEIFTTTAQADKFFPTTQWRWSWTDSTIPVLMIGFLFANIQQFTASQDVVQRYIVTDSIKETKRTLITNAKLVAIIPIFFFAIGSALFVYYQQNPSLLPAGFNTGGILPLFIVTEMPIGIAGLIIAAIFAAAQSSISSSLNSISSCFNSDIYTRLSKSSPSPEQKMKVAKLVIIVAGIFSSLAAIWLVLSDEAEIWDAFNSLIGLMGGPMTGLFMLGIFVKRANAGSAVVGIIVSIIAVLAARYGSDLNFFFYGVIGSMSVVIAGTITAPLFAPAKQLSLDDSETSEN
The data set can be described thus: [3H]Neu5Ac efflux in proteoliposomes, PmSiaT. The conditions noted are these: 0.1 mM external compound. The class given is biochemical. The protocol:
Figure 5 Kinetic analysis of the inhibition of recombinant SiaT from P. mirabilis (A,B) and S. aureus (C,D) reconstituted in proteoliposomes and [^3H]Neu5Ac efflux in proteoliposomes (E,F). (a–d) Data were plotted according to Lineweaver–Burk as a reciprocal transport rate vs reciprocal Neu5Ac concentration. The transport rate was measured, in 5 min, by adding [^3H] Neu5Ac at the indicated concentrations to proteoliposomes containing 20 mM K^+-gluconate in the presence of valinomycin as described in the Supporting Information. [(A,B) P. mirabilis SiaT]; (A) compound 3f 0.25 μM (●) or 0.75 μM (□) was added in comparison to samples without inhibitor (○). (B) Compound 3e 12 μM (●) or 40 μM (□) was added in comparison to samples without an inhibitor (○). [(C,D) S. aureus SiaT]. (C) Compound 3f 80 μM (●) or 200 μM (□) was added in comparison to samples without an inhibitor (○). (D) Compound 3e 5 μM (●) or 12 μM (□) was added in comparison to samples without an inhibitor (○). Results are mean ± s.d. from four independent experiments (n = 4). […] Data are calculated as the percent of residual activity with respect to the control sample (efflux time zero). The results are the means ± s.d. of three independent experiments. […]
For uptake experiments, 600 μL of proteoliposomes were loaded onto a Sephadex G-75 column (0.7 cm diameter × 15 cm height), pre-equilibrated with 20 mM Hepes Tris pH 7.0 with 40 mM sucrose to balance the internal osmolarity. […] For kinetic measurement, the initial transport rate was measured by stopping the reaction after 5 min, that is, within the initial linear range of [^3H]-Neu5Ac uptake into the proteoliposomes previously described. […] In both uptake and efflux experiments, the transport assay was terminated by loading each proteoliposome sample (100 μL) on a Sephadex G-75 column (0.6 cm diameter × 8 cm height) to remove the external radioactivity. Proteoliposomes were eluted with 1 mL of 50 mM NaCl and collected in a 4 mL of scintillation mixture, vortexed and counted. […]

As for `CC(=O)NC1C(OCc2ccccc2)CC(O)(C(=O)O)OC1C(O)C(O)CO` (stereo not drawn) [Compound 3a], the “In vitro plasma stability (% compound remaining after 23 h)” value in data set [1] turned out to be 100%. In the case of `CC(=O)NC1C(OCc2cc(F)cc(F)c2)CC(O)(C(=O)O)OC1C(O)C(O)CO` (stereo not drawn) [Compound 3e], the “In vitro plasma stability (% compound remaining after 23 h)” value in data set [1] came to 100%. The “[3H]Neu5Ac efflux induced” value in data set [2] is “did not cause any [^3H]Neu5Ac efflux”. As for `CC(=O)NC1C(OCc2cc(Br)cc(Br)c2)CC(O)(C(=O)O)OC1C(O)C(O)CO` (stereo not drawn) [Compound 3f], the “In vitro plasma stability (% compound remaining after 23 h)” value in data set [1] was found to be 100%. The “[3H]Neu5Ac efflux induced” value in data set [2] was “did not cause any [^3H]Neu5Ac efflux”.

Regarding `CC(=O)N[C@H]1[C@H]([C@H](O)[C@H](O)CO)OC(O)(C(=O)O)C[C@@H]1O` (stereo partly drawn) [Neu5Ac, 5-N-acetyl neuraminic acid, reference compound], the “[3H]Neu5Ac efflux induced” value in data set [2] is recorded as “slow but measurable counter flow”.
